Tests used:
spleen cells of NOD mice = experiment: Proliferative recall response of spleen cells to β-cell antigens, by age; type: cell-based; details: female NOD mice, 10 μg/ml antigen or 7 μM peptide, 72 h culture (FIG. 8)
Experimental: NOD (Taconic farms) and BALB/c mice (Jackson Laboratories) were kept under specific pathogen free conditions. The mice were sacrificed at the ages indicated and the spleen cells were tested directly ex vivo for their proliferative recall response to antigen. Single cell suspensions of spleen cells were plated at 1×10^6 cells per well in 96 well microtiter plates in 200 μl serum free HL-1 medium (Ventrex) that was supplemented with 2 mM glutamine with or without 10 μg/ml antigen (or 7 μM peptide) in triplicate cultures. During the last 16 h of the 72 h culture period, 1 μCi[^3 H]-thymidine was added per well. Incorporation of label was measured by liquid scintillation counting.
Both human GAD65 (Bu, et al., Proc. Natl. Acad. Sci., 89:2115-2119, 1992) and E. coli β-gal (control) were purified from recombinant bacteria on the basis of a hexahistidine tag which allows their rapid affinity purification by metal affinity chromatography (Hochuli, et al., Bio/Technology, 6:1321-1325, 1988). Bovine CPH was the generous gift of L. Fricker (Albert Einstein Col. Med.) and human insulin was purchased from Eli Lilly.

female NOD mice [1] = experiment: Insulitis score after tolerance induction; type: in vivo; details: Table 8A: i.v. injection at 3 weeks of age in PBS, examined at 12 weeks; scale 0-4; mean ± SE
Experimental: 1. In these experiments female NOD mice were intravenously injected at 3 weeks of age with 50 μg GAD, μ-galactosidase, mycobacterial hsp65 (m-hsp) or 0.1 μg of the immunodominant hsp peptide (hsp-p), in PBS. At 12 weeks of age, mice were examined for insulitis and autoantigen reactive T-cells. At this age both indications are established in untreated NOD mice. Pancreatic tissue sections were stained by immunoperoxidase techniques for insulin and were counterstained with hematoxylin. Insulitis was scored in a blinded manner by examining 54 to 87 islets on 5 interrupted tissue sections from each pancreas. Proliferative splenic T-cell responses induced by various antigens were performed as described above in Example 4. Data in Table 8 are expressed as the average [^3 H]-thymidine label (cpm) incorporated in triplicate cultures.
2. In a second set of experiments neonatal female NOD mice were injected intraperitoneally IFA with peptide 11, a mixture of peptides 34 and 35 plus IFA, or with IFA alone and at 12 weeks of age the mice were examined for insulitis and autoantigen reactive T-cells as in Example 6.1. Proliferative splenic T-cell responses induced by the various antigens were performed as in Example 4, and data in Table 8B are expressed as the average [^3 H]-thymidine label (cpm) incorporated in triplicate cultures.
3. In a third set of experiments female NOD mice were intravenously injected at three weeks of age with peptide 11 (control), a mixture of peptides 34 and 35 plus IFA, or with HEL peptides and at 12 weeks of age the mice were examined for insulitis and autoantigen reactive T-cells as in Example 6.1. Proliferative splenic T-cell responses induced by the various antigens were performed as in Example 4, and data in Table 8C are expressed as the average [^3 H]-thymidine label (cpm) incorporated in triplicate cultures.

[2] = tested on: spleen cells of treated female NOD mice; experiment: Proliferative splenic T-cell responses to antigens after tolerance induction; type: in vivo; details: Table 8A: i.v. at 3 weeks, tested at 12 weeks
female NOD mice [3] = experiment: GAD immunization of 8 week old NOD mice, onset of IDDM; type: in vivo; details: again every 6 weeks
Description: An IPTG inducible T7 expression vector was used to express both human GAD65 and E. coli b galactosidase (β-gal). In IPTG induced recombinant E. coli, GAD and β-gal constitute about 10-20% of the total bacterial protein. However, almost all of the GAD was in inclusion bodies, which could be isolated and extensively washed to obtain material that is about 80% GAD. We then did affinity purifications of GAD and β-gal on the basis of a hexa-histidine "tag" which was attached to GAD during the subcloning process. These extra histidine residues allow the rapid affinity purification (Novagen) of GAD by metal affinity chromatography (Hochuli, et al., Bio Technology, 6:1321-1325, 1988). The inclusion body material is solubilized in 6M guanidine hydrochloride (GHCL), 10 mm β-mercaptoethanol and 1% triton X-100. After binding to the column, the column was extensively washed with GHCL and 8M urea in phosphate buffers. Only the central peak GAD fraction was utilized for subsequent studies. Human GAD65 shares 96% amino acid sequence identity with murine GAD65, with most of the amino acid differences being conservative substitutions.
Breeder mice were purchased from Taconic Farms and housed under specific pathogen-free conditions. Only female NOD mice were used in this study. The average age of IDDM onset in unrelated females in the colony was 22 weeks. Insulitis is generally observed beginning at 4 weeks of age. T cell responses to GAD, HSP, CPH were found by 6 weeks in age. The incidence of IDDM in female mice is 70-90% by one year of age.
At 8 weeks of age, 25 ug GAD or control β-gal. was injected intraperftoneally (ip) in 100 ul of incomplete Freunds adjuvant (IFA). Because there may be a requirement for continual antigen presentation (Ramsdell, et al., Science, 257:1130-1133, 1992) mice were treated again every 6 weeks. Urine glucose levels were monitored twice weekly. After observing above normal glucose in urea, blood glucose levels were monitored twice weekly. Two consecutive blood glucose level readings of […] was considered as IDDM onset, after which the mice were sacrificed and spleen cells were tested as described above in Example 6 for evidence of spleen cell proliferation.

[4] = molecular target: T1, 64 kD pancreatic polypeptide (Homo sapiens, UniProt Q05329); experiment: Prior absorption of patient sera, then immunoprecipitation of the 64 kD islet cell polypeptide; type: binding
T1 construct: antibodies which recognize specific polypeptides produced in human pancreatic islet cells; endogenous in cells; host or cells: human pancreatic islet cells from cadaveric pancreas, metabolically labelled with 35S-methionine
Description: 4. Human Islet Cells. Human pancreatic islets were isolated from cadaveric pancreases and maintained in vitro as previously described (Ricordi, et al., Diabetes, 37:413-420, 1988). The islet cells were metabolically labeled with ^35 S methionine (Amersham, Arlington Heights, Ill.) in vitro (95% air/5%CO2).
5. Islet Cell Extractions and Immunoprecipitations. Islet cells were extracted as previously described by Atkinson, et al. (Lancet, 335:1357-1360, 1990) with the following modifications. […] Following another incubation with protein A Sepharose CL-4B (1 h, 4° C.), the complexes were then washed 5 times with 50 mM Tris HCL (pH 7.4) with 0.1% SDS, 1.0% Triton X-114, and 2 mM EDTA, and then washed again one time in double distilled water. The protein A Sepharose CL-4B was then boiled in Laemmli sample buffer (Laemmli, Nature, 227:680-685, 1970), and the samples were subjected to SDS-PAGE and fluororadiography (Kodak, X-omat AR5) using Enhance (New England Nuclear). Alternatively, the autoradiographs were analyzed by a BETAGEN (Boston, Mass.) analyzer. Both 64 KA positive and negative sera were used in each assay, to serve as interassay controls. All fluororadiographs were analyzed and rated as positive or negative after comparison with the known interassay controls.

[5] = tested on: IDDM autoantibodies in sera of human patients; experiment: Immunoprecipitation of 35S-labeled GAD65 segments by IDDM patient sera; type: binding; details: 22 IDDM patient sera, 30 μl serum
Description: Portions of human GAD65 cDNA were amplified by the polymerase chain reaction (PCR; Saiki, et al., Science, 239:487, 1988) to produce DNA segments encoding three polypeptide segments: amino acid residues 1-224 (segment A); 224-398 (segment B); and 398-585 (segment C). Each construct also contained a T7 promoter, a consensus sequence for the initiation of translation and an initiating methionine codon (Korak, M., J. Cell Biol., 108:229, 1989). Each PCR product was then trascribed in vitro with T7 RNA polymerase and translated in vitro in a rabbit reticulocyte cell-free system in the presence of ^35 S-methionine, using conditions recommended by the supplier (Amersham Corp., Arlington Heights, Ill.). Each test serum (30 μl) was incubated with the resulting ^35 S labeled-polypeptides. The bound peptides were isolated with PAS and analyzed by SDS-PAGE in 12% polyaacrylamide and autoradiography.

T1 sequence (Q05329 whole entry): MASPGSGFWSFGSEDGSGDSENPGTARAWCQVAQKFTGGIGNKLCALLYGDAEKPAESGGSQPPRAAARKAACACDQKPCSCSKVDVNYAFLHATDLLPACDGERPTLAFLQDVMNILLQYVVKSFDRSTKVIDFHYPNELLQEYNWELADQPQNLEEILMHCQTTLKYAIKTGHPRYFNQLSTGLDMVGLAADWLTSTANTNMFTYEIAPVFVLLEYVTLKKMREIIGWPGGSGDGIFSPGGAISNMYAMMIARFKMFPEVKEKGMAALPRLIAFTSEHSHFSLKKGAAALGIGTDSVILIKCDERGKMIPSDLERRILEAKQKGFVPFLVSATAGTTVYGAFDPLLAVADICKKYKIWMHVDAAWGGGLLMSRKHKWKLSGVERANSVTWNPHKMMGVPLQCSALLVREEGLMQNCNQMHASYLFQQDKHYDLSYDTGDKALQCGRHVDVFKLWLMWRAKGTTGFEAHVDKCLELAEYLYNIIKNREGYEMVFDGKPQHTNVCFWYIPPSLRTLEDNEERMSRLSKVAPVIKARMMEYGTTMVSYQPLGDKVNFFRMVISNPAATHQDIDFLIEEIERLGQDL

insulin: human insulin purchased from Eli Lilly [reference compound]
age at which the proliferative T-cell response to the antigen appeared (spleen cells of NOD mice): 12 weeks

β-Gal.: E. coli β-galactosidase (control antigen) purified from recombinant bacteria by hexahistidine tag [reference compound]
Insulitis Score (female NOD mice [1]): 2.6 ± 0.6
Spleen Cell Proliferation (SI ± SEM) CPH ([2]; recall antigen CPH): 11.5 ± 0.9 SI
Spleen Cell Proliferation (SI ± SEM) GAD ([2]; recall antigen GAD): 15.4 ± 1.8 SI
Spleen Cell Proliferation (SI ± SEM) GAD Peptides #17 ([2]; recall antigen GAD peptide #17): 5.1 ± 0.6 SI
Spleen Cell Proliferation (SI ± SEM) GAD Peptides #34 ([2]; recall antigen GAD peptide #34): 5.1 ± 0.6 SI
Spleen Cell Proliferation (SI ± SEM) GAD Peptides #35 ([2]; recall antigen GAD peptide #35): 4.0 ± 0.2 SI
Spleen Cell Proliferation (SI ± SEM) hsp Peptide ([2]; recall antigen hsp peptide): 6.6 ± 0.5 SI
Spleen Cell Proliferation (SI ± SEM) β-Gal ([2]; recall antigen β-Gal): 1.1 ± 0.1 SI
mice that developed IDDM by 27 weeks in age (female NOD mice [3]; 25 ug ip in IFA at 8 weeks of age): 6/10
treated mice remaining disease free at 52 weeks of age (female NOD mice [3]; 25 ug ip in IFA at 8 weeks, 10 mice per group): 2

bacterially produced GAD65: GAD65 expressed in bacteria, used to absorb patient sera
ability of the absorbed sera to recognize the 64 kD pancreatic polypeptide [4]: abolished

segment B: human GAD65 amino acid residues 224-398, translated in vitro, 35S labeled
patients with antibodies reactive with the segment [5]: 41%

CPH: bovine carboxypeptidase H, gift of L. Fricker [reference compound]
age at which the proliferative T-cell response to the antigen appeared (spleen cells of NOD mice): ≤ 8 weeks

B1: segment A: human GAD65 amino acid residues 1-224, translated in vitro, 35S labeled (protein, UniProt Q05329 1-224, looked up, fragment)
chain: MASPGSGFWSFGSEDGSGDSENPGTARAWCQVAQKFTGGIGNKLCALLYGDAEKPAESGGSQPPRAAARKAACACDQKPCSCSKVDVNYAFLHATDLLPACDGERPTLAFLQDVMNILLQYVVKSFDRSTKVIDFHYPNELLQEYNWELADQPQNLEEILMHCQTTLKYAIKTGHPRYFNQLSTGLDMVGLAADWLTSTANTNMFTYEIAPVFVLLEYVTLKKM
modifications: 35S label
notes: human GAD65 amino acid residues 1-224, translated in vitro, 35S labeled
patients with antibodies reactive with the segment [5]: none

B2: segment C: human GAD65 amino acid residues 398-585, translated in vitro, 35S labeled (protein, UniProt Q05329 398-585, looked up, fragment)
chain: MGVPLQCSALLVREEGLMQNCNQMHASYLFQQDKHYDLSYDTGDKALQCGRHVDVFKLWLMWRAKGTTGFEAHVDKCLELAEYLYNIIKNREGYEMVFDGKPQHTNVCFWYIPPSLRTLEDNEERMSRLSKVAPVIKARMMEYGTTMVSYQPLGDKVNFFRMVISNPAATHQDIDFLIEEIERLGQDL
modifications: 35S label
notes: human GAD65 amino acid residues 398-585, translated in vitro, 35S labeled
patients with antibodies reactive with the segment [5]: 27%

Reference: patent US5998366A, “Method for ameliorating glutamic acid decarboxylase associated autoimmune disorders” (The Regents of the University of California, priority 1997, dated 1999)
